# Measured values: patent US8981052B2, “JNK inhibitor molecules” (Xigen Inflammation Ltd., priority 2010, dated 2015)
# Where a SMILES comes first, the peptide text is derived from it. Where no end group is shown, it is not given here. [ ]: non-standard residue; d: D form.
# Experiments:
# [1] = Stability (half-life) of JNK inhibitors in human serum, UPLC-MS
# Procedure: The experiment was performed as described by Tugyi et al. (Proc Natl Acad Sci USA, 2005, 413-418). The remaining intact peptide was quantified by UPLC-MS.
# Hela cells = assay: Internalization of TAT derived transporters, 24 hours incubation, fluorescence of cell extracts; format: cell-based; details: FIG. 6; Y in position 2
# Procedure: The transporter sequences analyzed correspond to SEQ ID NOs: 52-94 plus SEQ ID NOs: 45, 47, 46, 43 and 99 (FIG. 6a) and SEQ ID NOs: 100-147 (FIG. 6b). […] Hela cells were incubated 24 hours in 96 well plate with […] of the respective transporters. The cells were then washed twice with an acidic buffer (0.2M Glycin, 0.15M NaCl, pH 3.0) and twice with PBS. Cells were broken by the addition of RIPA lysis buffer. The relative amount of internalized peptide was then determined by reading the fluorescence intensity (Fusion Alpha plate reader; PerkinElmer) of each extract followed by background subtraction.
# Hela cells were incubated 24 hours in 96 well plate with […] of the r3-L-TAT-derived transporters. The cells were then washed twice with an acidic buffer (0.2M Glycin, 0.15M NaCl, pH 3.0) and twice with PBS. Cells were broken by the addition of RIPA lysis buffer. The relative amount of internalized peptide was then determined by reading the fluorescence intensity (Fusion Alpha plate reader; PerkinElmer) of each extract followed by background subtraction
# His-JNK1 = target: T1, His-JNK1 (Homo sapiens, UniProt P45983); assay: AlphaScreen assay, inhibition of JNK1 mediated phosphorylation of biotin-cJun substrate; format: biochemical; details: compared with L-TAT-IB1; JNK isoform not stated
# T1 construct: His; purchased Upstate 14-327
# Procedure: In the following the standard operating procedure will be set forth describing how the Inhibitory efficacy of JNK inhibitors according to the present invention was measured. The method allows to measure in vitro, in a non radioactive standardized assay, the ability of a candidate compound to decrease the phosphorylation of the c-Jun specific substrate by JNK. Moreover, it will be illustrated how to determine the inhibitory effect (IC50) and the Ki of a chosen compound for JNK.
# • His-JNK1 (ref 14-327, Upstate, 10 μg in 100 μl: concentration: 2.2 μM) 5 nM final • His-JNK2 (ref 14-329, Upstate, 10 μg in 100 μl: concentration: 2 μM) 5 nM final • His-JNK3 (ref 14-501, Upstate, 10 μg in 100 μl: concentration: 1.88 μM) 5 nM final • Anti-Phospho-cJun (ref 06-828, Upstate, lot DAM1503356, concentration: 44.5 μM) 10 nM final • Biotin-cJun (29-67): • sequence: Biotin-[…] […]
# The bioluminescent energy transfer was read on the Fusion Alpha Plate reader (Perkin Elmer). […]
# [2] = system: primary rat lymph-nodes purified T cells; assay: CD3/CD28-induced IL-2 release in primary rat lymph-nodes purified T cells; format: cell-based; details: inhibitor added 1 h before CD3/CD28 (2 μg/mL), supernatant after 24 h
# Procedure: Control rat were sacrificed and lymph-nodes were harvested. T cells further were purified (using magnetic negative selection) and plated into 96-well plates at 200,000 cells/well. Cells were treated with anti-rat CD3 and anti-rat CD28 antibodies (2 μg/mL). JNK inhibitor with SEQ ID NO: 172 was added to the cultures 1 h before CD3/CD28 treatment and IL-2 release was assessed in supernatant 24 h after treatment.
# Control animal were sacrificed, lymph nodes (LN) were harvested and kept in complete RPMI medium. LN were smashed with complete RPMI on 70 μm filter using a 5 ml piston. A few drops of media were added to keep strainer wet. Cells were centrifuged for 7 min at 450 g and 4° c. Pellet was resuspended in 5 ml fresh medium. Cells were passed again through cell strainer. An aliquot of cells was counted, while cells were centrifuged again 10 min at 1400 rpm and 4° c. Cells were resupended in MACS buffer (80 μl of MACS buffer per 10^7 cells). 10 μl of anti-rat MHC microbeads were added per 10 million cells, cells were incubated for 15 min at 4°-8° C. Cells were washed with 15 ml MACS buffer and centrifuge for 7 min at 700 g and 4° C. […] Resuspended cells were counted and plated at density of 200000 cells/well in 100 μl of complete medium. […] Cytokines were then measured using standard Elisa kits. Results are expressed as pg/ml of supernatant of the measured cytokine. […]
# T1 sequence (P45983 1-384 isoform P45983-2): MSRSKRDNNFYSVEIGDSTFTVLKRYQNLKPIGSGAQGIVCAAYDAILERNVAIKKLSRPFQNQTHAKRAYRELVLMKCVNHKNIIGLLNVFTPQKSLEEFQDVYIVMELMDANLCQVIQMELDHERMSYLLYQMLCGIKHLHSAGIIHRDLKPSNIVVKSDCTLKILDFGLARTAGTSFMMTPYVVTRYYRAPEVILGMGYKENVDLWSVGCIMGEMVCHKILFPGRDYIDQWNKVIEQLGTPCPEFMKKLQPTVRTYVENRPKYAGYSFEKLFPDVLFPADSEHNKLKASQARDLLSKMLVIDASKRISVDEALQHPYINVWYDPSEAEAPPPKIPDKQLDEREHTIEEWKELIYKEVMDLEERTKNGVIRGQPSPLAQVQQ
compound,measurement,setting,value
"CC(C)C[C@H](NC(=O)[C@H](CC(N)=O)NC(=O)[C@H](CC(C)C)NC(=O)[C@@H](NC(=O)[C@@H](C)NC(=O)[C@@H]1CCCN1C(=O)[C@H](CCCNC(=N)N)NC(=O)[C@@H](CCCCN)NC(=O)[C@@H]1CCCN1C(=O)[C@H](CCCNC(=N)N)NC(=O)[C@@H](CCCNC(=N)N)NC(=O)[C@H](CCCNC(=N)N)NC(=O)[C@H](CCCNC(=N)N)NC(=O)[C@H](CCC(N)=O)NC(=O)[C@@H](CCCNC(=N)N)NC(=O)[C@H](CCCNC(=N)N)NC(=O)[C@H](CCCCN)NC(=O)[C@H](CCCCN)NC(=O)[C@H](N)CCCNC(=N)N)[C@@H](C)O)C(=O)N[C@H](Cc1ccccc1)C(N)=O [SEQ ID NO: 172, rKKRrQRRrRPkRPaTLNLf] (H-[dR]KKR[dR]QRR[dR]RP[dK]RP[dA]TLNL[dF]-NH2; N-terminus assumed)",time until completely degraded,"[1]; human serum (50%; 10 and 50% in PBS 1×), 0.1 mM peptide",14 days
rYKRrQRRr ([dR]YKR[dR]QRR[dR]) [SEQ ID NO: 142],transporter activity,Hela cells,highest transporter activity
dqsrpvqpflnlttprkprpprrrqrrkkrg ([dD][dQ][dS][dR][dP][dV][dQ][dP][dF][dL][dN][dL][dT][dT][dP][dR][dK][dP][dR][dP][dP][dR][dR][dR][dQ][dR][dR][dK][dK][dR]G) [SEQ ID NO: 197],"inhibitory capacity (JNK inhibition, FIG. 4)",His-JNK1,significant decrease in inhibitory capacity in comparison to L-TAT-IB1
same,sensitivity to proteolytic degradation,[1],extremely stable towards proteolytic digestion
same,CD3/CD28-induced IL-2 release,[2],Dose-dependent inhibition
